Molecules are shown by their SMILES. Like-named read-outs stand apart in the source and are kept apart here.

We go through nine compounds from US7196110B2, “N-substituted tricyclic 3-aminopyrazoles as inhibitors for the treatment of cell proliferative disorders” (Janssen Phamaceutica N.V., priority 2002, dated 2007).

The test system of data set [1] is A375 (melanoma). Briefly: Anti-cell proliferation in tumor cells (14C-thymidine incorporation), A375. The class given is cell-based. The following applies: Homo sapiens, A-375; read-out: IC50 on cell proliferation, A375. The protocol: (§1) The effect of compounds of the invention on cell proliferation in various tumor cells was tested based on incorporation of ^14C-thymidine into DNA of cells.
(§2) Similar to those described above in 3a, except that different cells, cell growth medium, and growth supplements were used. Human tumor cell lines derived from various human tissue origins (LoVo from colon, H460 from lung, T47D from breast, PC3 from prostate, A375 from melanoma, AsPC1 from pancreas) were obtained from the American Type Culture Collection (ATCC) and cultured under specified conditions required for each cell type, as provided by ATCC. Complete medium was obtained from Cellgro: Iscove's medium with 10% Fetal Bovine Serium (FBS) (Mediatech, Inc., Herndon, Va. 20171, Cat. No. 10-016-CV).
(§3) Tumor cells were seeded at approx. 3000–8000 cells per well in a volume of 100 μl of complete medium. Cells were grown for 24 hours in complete medium, and 1 μl of test compound was serially diluted in 100% DMSO and added to each well. For maximum growth control wells, only 1 μl of 100% DMSO was added. After 24 hours incubation, 20 μl of ^14C-thymidine master mix was added to each well and the ^14C-thymidine master mix was pepared according to the following regimen:
(§4) Cells were incubated for an additional 24 hours at 37° C. in medium containing test compound and ^14C-thymidine. Then, the reaction mixture was discarded and the plate was washed 2 times each with 200 μl PBS. Subsequently, each well on the plate was filled with 200 μl of PBS. The top of the plate was sealed with transparent plate sealer and white plate backing sealers were applied to the bottom of plates. The retained ^14C inside each well was measured using a Packard TopCount.
(§5) In order to test the potency of inhibition of the present compound, IC50 of an individual compound on the inhibition of tumor cell line proliferation was measured using the above procedure. As used herein, said IC50 refers to the concentration of the test compound at which the amount of tumor cell proliferation is reduced by one-half as compared to the maximum growth control wells without the compound.
For orientation: Dividing cells build labelled thymidine or BrdU into new DNA.

Data set [2] addresses T1, PDGF-receptor beta enzyme comprising the tyrosine kinase domain (Homo sapiens, UniProt P09619).
T1 construct: from amino acid 545 to 1106 of GenBank Access NO: AAA36427
The data set is described as follows: Inhibition of PDGF-receptor kinase activity (cell-free, PLC1 peptide, 33P Flashplate). The following applies: for inhibition at 10 µM: compound at 10 uM, read-out: Percent Inhibition @ 10 uM. The class given is biochemical. A digest of the protocol:
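The IC50 is the inhibitor level halving kinase activity relative to inhibitor-free wells, measured as 33P captured on a streptavidin-bound biotin-PLC1 peptide. The reaction ran 60 min at 30 °C in pH 8 Tris buffer with 1 mM DTT, 5 μM ATP and the 545–1106 kinase-domain enzyme.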

Data set [3] has as its system LoVo (colon). The data set is described as follows: Anti-cell proliferation in tumor cells (14C-thymidine incorporation), LoVo. The data set is classed as cell-based. The following applies: Homo sapiens, read-out: IC50 on cell proliferation, LoVo. The protocol:
as §1, §2, §3, §4, §5

Data set [4] concerns H460 (lung). Briefly: Anti-cell proliferation in tumor cells (14C-thymidine incorporation), H460. The data set is classed as cell-based. The following applies: Homo sapiens, NCI-H460; read-out: IC50 on cell proliferation, H460. The protocol: as §1, §2, §3, §4, §5
Data set [5] deals with T47D (breast). The data set is described as follows: Anti-cell proliferation in tumor cells (14C-thymidine incorporation), T47D. The class given is cell-based. Conditions: Homo sapiens, read-out: IC50 on cell proliferation, T47D. The protocol:
as §1, §2, §3, §4, §5

Data set [6] concerns AsPC1 (pancreas). Briefly: Anti-cell proliferation in tumor cells (14C-thymidine incorporation), AsPC1. The class given is cell-based. Conditions: Homo sapiens, ASPC1; read-out: IC50 on cell proliferation, AsPC1. The protocol: as §1, §2, §3, §4, §5
The target in data set [7] is c-Abl kinase (Abelson murine leukemia virus, UniProt P00521). The data set is described as follows: Inhibition of c-Abl kinase activity (cell-free, Abl peptide substrate, 33P Flashplate). The data set is classed as biochemical. The following applies: IC50 for the c-Abl kinase activity.
Sequence of c-Abl kinase (P00521 115-385): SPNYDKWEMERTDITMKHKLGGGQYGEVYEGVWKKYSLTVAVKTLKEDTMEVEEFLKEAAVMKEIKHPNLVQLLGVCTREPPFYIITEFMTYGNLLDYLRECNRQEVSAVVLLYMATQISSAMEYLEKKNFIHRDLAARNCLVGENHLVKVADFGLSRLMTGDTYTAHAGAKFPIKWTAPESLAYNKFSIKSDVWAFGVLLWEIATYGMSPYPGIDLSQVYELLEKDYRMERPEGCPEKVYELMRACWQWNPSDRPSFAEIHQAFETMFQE
Data set [8] relates to PC3 (prostate). Briefly: Anti-cell proliferation in tumor cells (14C-thymidine incorporation), PC3. The class given is cell-based. The following applies: Homo sapiens, PC-3; read-out: IC50 on cell proliferation, PC3. The protocol:
as §1, §2, §3, §4, §5

Data set [9] can be described thus: Rat pharmacokinetics study of pro-drugs, conversion to parent monitored by HPLC/MS/MS. The class given is in vivo. Conditions: po, rat plasma, 10 mg/kg orally, read-out: Fast PK (0.5 h) conc. Prodrug. The protocol:
Furthermore, pro-drugs have been administered orally to rats (10 mg/kg) in pharmacokinetics studies, and the conversion of pro-drugs to the parent compound was montitored by HPLC/MS/MS analyses. Parent compound or the glucuronide conjugates of the parent compound was detected in the rat plasma from the pharmacokinetics studies (Table G).

Data set [10] has as its system PDGF-BB-stimulated angiogenesis. Briefly: Anti-angiogenesis matrigel mouse model (MM assay) supplemented with PDGF-BB, plug hemoglobin content. The class given is in vivo, mice (C57BL/6J). Conditions: mice. The source says: Angiogenesis inhibitory activity of a compound of this invention can be measured in vivo using the matrigel mouse model (MM Assay) of angiogenesis (Passaniti et al., Laboratory Investigation, 67: 519–528, 1992). The matrigel mouse assay is a well-established method to quantify angiogenesis (see e g. Capogrossi et al., Methods in Molecular Medicine, Vascular Disease: Molecular Biology and Gene Therapy Protocols, Edited by: A. H. Baker, Humana Press Inc., Totowa, N.J., 1999). The model has been characterized extensively for its relevance as a mimic of the process of angiogenesis and has been used extensively to evaluate in vivo both potential angiogenic and anti-angiogenic activity of numerous compounds/agents. […] All procedures involving animals were conducted in an animal facility fully accredited by the American Association for Assessment and Accreditation of Laboratory Animal Care (AAALAC) and in accordance with The Guide for the Care and Use of Laboratory Animals (NIH). […]
Normal male mice (C57BL/6J) were injected subcutaneously (ventrally below rib cage at abdominal midline) with 1.0 mL of chilled matrigel supplemented with a single purified pro-angiogenic growth factor (100–500 ng/mL of either rhPDGF-BB (supra), recombinant human basic fibroblast growth factor, rhFGF-basic (R&D System Cat. No 233-FB) or recombinant human vascular endothelial growth factor, rhVEGF (PanVera Cat. No R2951) and heparin (35 U/mL). Compounds are formulated as 0.1% suspensions (1 mg/mL final concentration) in 0.5% methylcellulose. Vehicle or test compounds (8–10 mice per treatment group) were administered orally by gavage beginning two hours after matrigel injections. […] Supernatants were removed and the hemoglobin concentration in the plug extract was measured spectrophotometrically using the Drabkin's assay method (Drabkin's reagent kit 525-A; SIGMA) and read on a Beckman DU 7400 Spectrophotometer. […] Group differences were analyzed statistically using the Mann-Whitney Test, with a p-value of 0.05 or less considered statistically significant. […]

Setting [11] is: PDGF-R kinase activity, read-out: IC50.

T1 sequence (P09619 545-1106): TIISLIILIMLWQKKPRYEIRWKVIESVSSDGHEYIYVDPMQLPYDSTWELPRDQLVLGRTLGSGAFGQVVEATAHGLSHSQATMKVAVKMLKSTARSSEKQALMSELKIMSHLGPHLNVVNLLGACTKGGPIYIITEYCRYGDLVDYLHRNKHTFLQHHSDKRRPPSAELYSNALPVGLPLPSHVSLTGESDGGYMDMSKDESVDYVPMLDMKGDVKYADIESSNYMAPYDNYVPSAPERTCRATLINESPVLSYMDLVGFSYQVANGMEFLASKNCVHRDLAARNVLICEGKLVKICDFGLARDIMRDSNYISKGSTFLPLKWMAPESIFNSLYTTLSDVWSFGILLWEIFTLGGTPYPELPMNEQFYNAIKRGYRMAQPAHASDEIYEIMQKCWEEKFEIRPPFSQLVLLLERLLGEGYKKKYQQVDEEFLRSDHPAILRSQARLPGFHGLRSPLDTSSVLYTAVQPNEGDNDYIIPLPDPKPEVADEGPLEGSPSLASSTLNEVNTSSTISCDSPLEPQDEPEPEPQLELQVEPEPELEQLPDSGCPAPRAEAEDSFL

As a reminder, the inhibition is the percentage by which the read-out fell short of the control. For `COc1cc2c(cc1OC)-c1c(c(Nc3cccc(Br)c3)nn1C)C2` [Compound 91, (3-Bromo-phenyl)-(6,7-dimethoxy-1-methyl-1,4-dihydro-indeno[1,2-c]pyrazol-3-yl)-amine], the IC50 in [1] amounted to 0.004 µM; in [2] (setting [11]), 2.97 µM; in [3], 0.071 µM. In addition, the inhibition at 10 µM in data set [2] (PDGF-R kinase activity) was found to be 76%.

In the case of `CCOc1cccc(Nc2[nH]nc3c2Cc2cc(OCC)c(OCCCO)cc2-3)c1` [Compound 388, 3-[6-Ethoxy-3-(3-ethoxy-phenylamino)-2,4-dihydro-indeno[1,2-c]pyrazol-7-yloxy]-propan-1-ol], the IC50 was 0.006 µM in [4]; 0.003 µM in [5]; 0.002 µM in data set [1]; 0.155 µM in data set [6]; 0.046 µM in data set [7]; 0.0367 µM in data set [2] (setting [11]). For the same compound, the IC50 in data set [8] stood at 0.004 µM; in data set [3], 0.018 µM. Further, in data set [2] (PDGF-R kinase activity), the inhibition at 10 µM came out at 96%.

For `COCC(=O)n1nc(Nc2cccc(F)c2)c2c1-c1cc(OC)c(OC)cc1C2` [Compound 465, 1-[3-(3-Fluoro-phenylamino)-6,7-dimethoxy-4H-indeno[1,2-c]pyrazol-1-yl]-2-methoxy-ethanone], the IC50 was determined as 0.051 µM in data set [7] and 0.00673 µM in data set [2] (setting [11]). For the same compound, the inhibition at 10 µM in data set [2] (PDGF-R kinase activity) worked out at 96%. Besides, the concentration at 0.5 h in data set [9] is 0.223 µM.

As for `CCC1c2cc(OC)c(OC)cc2-c2n[nH]c(Nc3cccc(Br)c3)c21` (centres unmarked) [Compound 420, (3-Bromo-phenyl)-(4-ethyl-6,7-dimethoxy-2,4-dihydro-indeno[1,2-c]pyrazol-3-yl)-amine], the IC50 in data set [4] turned out to be 4.1 µM; in data set [5] it was 0.822 µM; in data set [1], 0.214 µM; in data set [6], 4.3 µM; in data set [7], 0.335 µM; in data set [2] (setting [11]) it was 0.0524 µM. Besides, the IC50 came to 0.276 µM in [8] and 3.8 µM in data set [3]. Further, in data set [2] (PDGF-R kinase activity), the inhibition at 10 µM came out at 100%.

For `COc1cc2c(cc1OC)-c1c(c(Nc3cccc(F)c3)nn1C(=O)Oc1ccccc1)C2` [Compound 433, 3-(3-Fluoro-phenylamino)-6,7-dimethoxy-4H-indeno[1,2-c]pyrazole-1-carboxylic acid phenyl ester], in data set [2] (PDGF-R kinase activity), the inhibition at 10 µM came out at 71%. The IC50 in data set [2] (setting [11]) was 0.585 µM. In addition, the concentration at 0.5 h in [9] turned out to be 0.06 µM.

In the case of `COc1cc2c(cc1OC)-c1n[nH]c(Nc3cccc(Cl)c3)c1C2` [Compound 4, (3-Chloro-phenyl)-(6,7-dimethoxy-2,4-dihydro-indeno[1,2-c]pyrazol-3-yl)-amine], in [5], the IC50 was 0.03 µM. Besides, the inhibition at 10 µM in [2] (PDGF-R kinase activity) amounted to 90%.

`COc1cc2c(cc1OC)-c1n[nH]c(Nc3cccc(C(F)(F)F)c3)c1C2` [Compound 26, (6,7-Dimethoxy-2,4-dihydro-indeno[1,2-c]pyrazol-3-yl)-(3-trifluoromethyl-phenyl)-amine]: the IC50 in data set [7] came to 0.134 µM; in data set [2] (setting [11]), 0.037 µM. Moreover, in data set [2] (PDGF-R kinase activity), the inhibition at 10 µM came out at 92%. In addition, in data set [10], the “% Inhibition @ 30 mg/kg po (angiogenesis, MM assay supplemented with PDGF-BB)” value was determined as 42%.

As for `CNC(=O)n1nc(Nc2cccc(F)c2)c2c1-c1cc(OC)c(OC)cc1C2` [Compound 578, 3-(3-Fluoro-phenylamino)-6,7-dimethoxy-4H-indeno[1,2-c]pyrazole-1-carboxylic acid methylamide], the inhibition at 10 µM in [2] (PDGF-R kinase activity) is 80%. Further, in data set [2] (read-out: IC50 (μM) on PDGF-R kinase activity), the IC50 turned out to be 4.02 µM. Further, in [9], the concentration at 0.5 h turned out to be 7.8 µM.

Consider `COc1cc2c(cc1OC)-c1c(c(Nc3cccc(F)c3)nn1C(=O)OCCOCCOCCO)C2` [Compound 471, 3-(3-Fluoro-phenyl-amino)-6,7-dimethoxy-4H-indeno[1,2-c]pyrazole-1-carboxylic acid 2-[2-(2-hydroxy-ethoxy)-ethoxy]-ethyl ester], for which the inhibition at 10 µM in data set [2] (PDGF-R kinase activity) was 90.5%. In data set [2] (setting [11]), the IC50 was found to be 0.135 µM. In addition, in [9], the concentration at 0.5 h was determined as 0 µM.
